Test system: P12-Ichikawa
Assay: cell viability relative to DMSO control; higher = less cytotoxic
Conditions: 48 h
Procedure, shortened: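 NOMO1 or SEM (500 cells/well) or P12-Ichikawa (1000 cells/well) leukemia cells were adapted for at least four passages in each medium. They were seeded in 1536-well plates (5 μl) and pin-dosed with library compounds in DMSO over an 11-point threefold series, 47 μM to 0.79 nM. CellTiter-Glo One luminescence was read after 48 h at 37°C. Viability is the per-plate percentage relative to DMSO wells, with cell-free wells as background.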

[1] = HPLM + 10% dialyzed FBS, 0.000781 µM
[2] = HPLM + 10% dialyzed FBS, 0.00234 µM
[3] = HPLM + 10% dialyzed FBS, 0.00702 µM
[4] = HPLM + 10% dialyzed FBS, 0.0211 µM
[5] = HPLM + 10% dialyzed FBS, 0.0632 µM
[6] = HPLM + 10% dialyzed FBS, 0.19 µM
[7] = HPLM + 10% dialyzed FBS, 0.569 µM
[8] = HPLM + 10% dialyzed FBS, 1.71 µM
[9] = HPLM + 10% dialyzed FBS, 5.12 µM
[10] = HPLM + 10% dialyzed FBS, 15.4 µM
[11] = HPLM + 10% dialyzed FBS, 46.1 µM
[12] = RPMI 5 mM glucose + 10% FBS, 0.000781 µM
[13] = RPMI 5 mM glucose + 10% FBS, 0.00234 µM
[14] = RPMI 5 mM glucose + 10% FBS, 0.00702 µM
[15] = RPMI 5 mM glucose + 10% FBS, 0.0211 µM
[16] = RPMI 5 mM glucose + 10% FBS, 0.0632 µM
[17] = RPMI 5 mM glucose + 10% FBS, 0.19 µM
[18] = RPMI 5 mM glucose + 10% FBS, 0.569 µM
[19] = RPMI 5 mM glucose + 10% FBS, 1.71 µM
[20] = RPMI 5 mM glucose + 10% FBS, 5.12 µM
[21] = RPMI 5 mM glucose + 10% FBS, 15.4 µM
[22] = RPMI 5 mM glucose + 10% FBS, 46.1 µM
[23] = RPMI 5 mM glucose + 10% dialyzed FBS, 0.000781 µM
[24] = RPMI 5 mM glucose + 10% dialyzed FBS, 0.00234 µM
[25] = RPMI 5 mM glucose + 10% dialyzed FBS, 0.00702 µM
[26] = RPMI 5 mM glucose + 10% dialyzed FBS, 0.0211 µM
[27] = RPMI 5 mM glucose + 10% dialyzed FBS, 0.0632 µM
[28] = RPMI 5 mM glucose + 10% dialyzed FBS, 0.19 µM
[29] = RPMI 5 mM glucose + 10% dialyzed FBS, 0.569 µM
[30] = RPMI 5 mM glucose + 10% dialyzed FBS, 1.71 µM
[31] = RPMI 5 mM glucose + 10% dialyzed FBS, 5.12 µM
[32] = RPMI 5 mM glucose + 10% dialyzed FBS, 15.4 µM
[33] = RPMI 5 mM glucose + 10% dialyzed FBS, 46.1 µM

## Cn1cnc([N+](=O)[O-])c1Sc1ncnc2nc[nH]c12
[1]
  cell viability: 95.4%
[2]
  cell viability: 97%
[3]
  cell viability: 98.4%
[4]
  cell viability: 95.7%
[5]
  cell viability: 102%
[6]
  cell viability: 97.7%
[7]
  cell viability: 96.5%
[8]
  cell viability: 86%
[9]
  cell viability: 36.2%
[10]
  cell viability: 28.4%
[11]
  cell viability: 29.2%
[12]
  cell viability: 81.8%
[13]
  cell viability: 88.5%
[14]
  cell viability: 82.1%
[15]
  cell viability: 88.5%
[16]
  cell viability: 99.2%
[17]
  cell viability: 95.1%
[18]
  cell viability: 90.9%
[19]
  cell viability: 79.9%
[20]
  cell viability: 64.5%
[21]
  cell viability: 28.3%
[22]
  cell viability: 19.4%
[23]
  cell viability: 88.9%
[24]
  cell viability: 95.3%
[25]
  cell viability: 98.1%
[26]
  cell viability: 91%
[27]
  cell viability: 97.2%
[28]
  cell viability: 92.1%
[29]
  cell viability: 88.5%
[30]
  cell viability: 72.6%
[31]
  cell viability: 63.2%
[32]
  cell viability: 21.2%
[33]
  cell viability: 13.7%

## CC(C)Cn1cnc2c(N)nc3ccccc3c21
[1]
  cell viability: 124%
[2]
  cell viability: 113%
[3]
  cell viability: 107%
[4]
  cell viability: 116%
[5]
  cell viability: 115%
[6]
  cell viability: 112%
[7]
  cell viability: 113%
[8]
  cell viability: 106%
[9]
  cell viability: 87.6%
[10]
  cell viability: 75.1%
[11]
  cell viability: 89.9%
[12]
  cell viability: 113%
[13]
  cell viability: 123%
[14]
  cell viability: 116%
[15]
  cell viability: 119%
[16]
  cell viability: 111%
[17]
  cell viability: 115%
[18]
  cell viability: 110%
[19]
  cell viability: 107%
[20]
  cell viability: 106%
[21]
  cell viability: 106%
[22]
  cell viability: 85.1%
[23]
  cell viability: 111%
[24]
  cell viability: 111%
[25]
  cell viability: 109%
[26]
  cell viability: 115%
[27]
  cell viability: 115%
[28]
  cell viability: 112%
[29]
  cell viability: 105%
[30]
  cell viability: 107%
[31]
  cell viability: 104%
[32]
  cell viability: 102%
[33]
  cell viability: 81%

## OC[C@H]1OC(OC2=CC3=C(C(=C2)O)C(=O)\C(=C/O3)C4=CC=C(O)C=C4)[C@H](O)[C@@H](O)[C@@H]1O (stereo not given in full)
[1]
  cell viability: 87.8%
[2]
  cell viability: 90.5%
[3]
  cell viability: 91.9%
[4]
  cell viability: 81.5%
[5]
  cell viability: 86.2%
[6]
  cell viability: 86.9%
[7]
  cell viability: 86.1%
[8]
  cell viability: 84.1%
[9]
  cell viability: 76%
[10]
  cell viability: 80.5%
[11]
  cell viability: 81.3%
[12]
  cell viability: 76.4%
[13]
  cell viability: 89.3%
[14]
  cell viability: 83.8%
[15]
  cell viability: 88.7%
[16]
  cell viability: 95.2%
[17]
  cell viability: 83.2%
[18]
  cell viability: 82.9%
[19]
  cell viability: 78%
[20]
  cell viability: 79%
[21]
  cell viability: 82.4%
[22]
  cell viability: 85.6%
[23]
  cell viability: 82.5%
[24]
  cell viability: 85.1%
[25]
  cell viability: 90.6%
[26]
  cell viability: 88.1%
[27]
  cell viability: 86%
[28]
  cell viability: 82.9%
[29]
  cell viability: 69.3%
[30]
  cell viability: 86.3%
[31]
  cell viability: 71.7%
[32]
  cell viability: 79.7%
[33]
  cell viability: 80%

## CC1=C(/C=C/C(C)=C/C=C/C(C)=C/C(=O)O)C(C)(C)CCC1
[1]
  cell viability: 116%
[2]
  cell viability: 125%
[3]
  cell viability: 121%
[4]
  cell viability: 121%
[5]
  cell viability: 127%
[6]
  cell viability: 119%
[7]
  cell viability: 132%
[8]
  cell viability: 126%
[9]
  cell viability: 123%
[10]
  cell viability: 111%
[11]
  cell viability: 104%

Source: the supplement of paper PMC11451515
